Experimental data taken from paper PMC7699745, “The Search for New Anticonvulsants in a Group of (2,5-Dioxopyrrolidin-1-yl)(phenyl)Acetamides with Hybrid Structure—Synthesis and In Vivo/In Vitro Studies” (International Journal of Molecular Sciences, 2020).
Where two headings read alike, the source gives them in different places.

Legend:
MES seizures, mice = test: Maximal electroshock (MES) seizure test; type: in vivo; details: Mus musculus, ip; for responders at 100 mg/kg: 0.5 h, i.p.; for ED50: at TPE (0.5 h; LTG 1.0 h), 95% confidence intervals in parentheses
[1] = test system: 6 Hz (32 mA) seizures, mice; test: Psychomotor 6 Hz (32 mA) seizure model; type: in vivo; details: for responders at 100 mg/kg / ED50: Mus musculus, ip; for responders at 100 mg/kg / protection in the 6 Hz (32 mA) test: 0.5 h, 100 mg/kg; for responders at 100 mg/kg: read-out: 6 Hz (32 mA) test, number of mice protected / number of mice tested (converted); for ED50: at TPE (0.5 h; LTG 1.0 h), 95% confidence intervals in parentheses; for protection in the 6 Hz (32 mA) test: i.p., groups of four
[2] = Rotarod test for acute neurological toxicity; details: mouse, in vivo, ip
[3] = test system: motor coordination of mice; test: Rotarod test for acute neurological toxicity; details: for impairment of motor coordination of mice: doses as high as 300 mg/kg; for Rotarod test, number of mice / number of mice tested: i.p., 100 mg/kg, 0.5 h
[4] = read-out: MES test, number of mice protected / number of mice tested (converted)
[5] = groups of four, read-out: protection in the MES test

SMILES | responders at 100 mg/kg (MES seizures, mice; [4]) | responders at 100 mg/kg [1] | responders at 100 mg/kg (MES seizures, mice; [5]) | ED50 (MES seizures, mice) | ED50 [1] | protection in the 6 Hz (32 mA) test [1] | melting point | TD50 at 0.5 h [2] | impairment of motor coordination of mice [3] | Rotarod test, number of mice / number of mice tested [3]
O=C(Nc1cccc(F)c1)C(c1ccccc1)N1C(=O)CCC1=O (stereo not shown) [Compound 5, 2-(2,5-Dioxopyrrolidin-1-yl)-N-(3-fluorophenyl)-2-phenylacetamide] | 0% | 25% |  |  |  |  |  |  |  | 
O=C(Nc1ccc(F)cc1)C(c1ccccc1)N1C(=O)CCC1=O (stereo not shown) [Compound 6, 2-(2,5-Dioxopyrrolidin-1-yl)-N-(4-fluorophenyl)-2-phenylacetamide] | 50% | 50% | ≥ 50% | 118 mg/kg | 57.6 mg/kg | at least 50% | 143.4 to 143.9 °C | > 300 mg/kg | did not impair motor coordination | 0/4
O=C(Nc1ccccc1Cl)C(c1ccccc1)N1C(=O)CCC1=O (stereo not shown) [Compound 7, N-(2-Chlorophenyl)-2-(2,5-dioxopyrrolidin-1-yl)-2-phenylacetamide] | 0% | 25% |  |  |  |  | 76.8 to 78.6 °C |  |  | 
O=C(Nc1cccc(Cl)c1)C(c1ccccc1)N1C(=O)CCC1=O (stereo not shown) [Compound 8, N-(3-Chlorophenyl)-2-(2,5-dioxopyrrolidin-1-yl)-2-phenylacetamide] | 75% | 25% | ≥ 50% | 73.5 mg/kg |  |  | 109.4 to 109.9 °C | > 300 mg/kg | did not impair motor coordination | 0/4
O=C(Nc1ccc(Cl)cc1)C(c1ccccc1)N1C(=O)CCC1=O (stereo not shown) [Compound 9, N-(4-Chlorophenyl)-2-(2,5-dioxopyrrolidin-1-yl)-2-phenylacetamide] | 75% | 25% | ≥ 50% | 106 mg/kg |  |  | 103.8 to 105.6 °C | > 300 mg/kg | did not impair motor coordination | 0/4
O=C(Nc1ccccc1C(F)(F)F)C(c1ccccc1)N1C(=O)CCC1=O (stereo not shown) [Compound 10, 2-(2,5-Dioxopyrrolidin-1-yl)-2-phenyl-N-(2-(trifluoromethyl)phenyl)acetamide] | 0% |  |  |  |  |  |  |  |  | 
O=C(Nc1cccc(C(F)(F)F)c1)C(c1ccccc1)N1C(=O)CCC1=O (stereo not shown) [Compound 11, 2-(2,5-Dioxopyrrolidin-1-yl)-2-phenyl-N-(3-(trifluoromethyl)phenyl)acetamide] | 25% |  |  |  |  |  | 158.2 to 159.4 °C |  |  | 
O=C(Nc1ccc(C(F)(F)F)cc1)C(c1ccccc1)N1C(=O)CCC1=O (stereo not shown) [Compound 12, 2-(2,5-Dioxopyrrolidin-1-yl)-2-phenyl-N-(4-(trifluoromethyl)phenyl)acetamide] | 0% |  |  |  |  |  | 188.1 to 188.5 °C |  |  | 
O=C(Nc1cccc(OC(F)(F)F)c1)C(c1ccccc1)N1C(=O)CCC1=O (stereo not shown) [Compound 13, 2-(2,5-Dioxopyrrolidin-1-yl)-2-phenyl-N-(3-(trifluoromethoxy)phenyl)acetamide] | 0% |  |  |  |  |  | 132.6 to 133.4 °C |  |  | 
O=C(NCc1ccccc1)C(c1ccccc1)N1C(=O)CCC1=O (stereo not shown) [Compound 14, N-Benzyl-2-(2,5-dioxopyrrolidin-1-yl)-2-phenylacetamide] | 50% | 50% | ≥ 50% | > 130 mg/kg | 62.9 mg/kg | at least 50% | 128.3 to 129.9 °C | > 300 mg/kg | did not impair motor coordination | 1/4
O=C(NCc1ccccc1F)C(c1ccccc1)N1C(=O)CCC1=O (stereo not shown) [Compound 15, 2-(2,5-Dioxopyrrolidin-1-yl)-N-(2-fluorobenzyl)-2-phenylacetamide] | 25% |  |  |  |  |  | 148.3 to 149.3 °C |  |  | 
O=C(NCc1cccc(F)c1)C(c1ccccc1)N1C(=O)CCC1=O (stereo not shown) [Compound 16, 2-(2,5-Dioxopyrrolidin-1-yl)-N-(3-fluorobenzyl)-2-phenylacetamide] | 25% |  |  |  |  |  | 136.7 to 137.7 °C |  |  | 
O=C(NCc1ccc(F)cc1)C(c1ccccc1)N1C(=O)CCC1=O (stereo not shown) [Compound 17, 2-(2,5-Dioxopyrrolidin-1-yl)-N-(4-fluorobenzyl)-2-phenylacetamide] | 0% |  |  |  |  |  | 146.3 to 147.7 °C |  |  | 
O=C(NCc1ccccc1Cl)C(c1ccccc1)N1C(=O)CCC1=O (stereo not shown) [Compound 18, N-(2-Chlorobenzyl)-2-(2,5-dioxopyrrolidin-1-yl)-2-phenylacetamide] | 0% |  |  |  |  |  | 152 to 153.6 °C |  |  | 
O=C(NCc1cccc(Cl)c1)C(c1ccccc1)N1C(=O)CCC1=O (stereo not shown) [Compound 19, N-(3-Chlorobenzyl)-2-(2,5-dioxopyrrolidin-1-yl)-2-phenylacetamide] | 75% | 50% | ≥ 50% | 90.7 mg/kg | 89.9 mg/kg | at least 50% |  | > 300 mg/kg | did not impair motor coordination | 0/4
O=C(NCc1ccc(Cl)cc1)C(c1ccccc1)N1C(=O)CCC1=O (stereo not shown) [Compound 20, N-(4-Chlorobenzyl)-2-(2,5-dioxopyrrolidin-1-yl)-2-phenylacetamide] | 0% |  |  |  |  |  | 146.3 to 147.9 °C |  |  | 
O=C(NCc1cccc(C(F)(F)F)c1)C(c1ccccc1)N1C(=O)CCC1=O (stereo not shown) [Compound 22, 2-(2,5-Dioxopyrrolidin-1-yl)-2-phenyl-N-(3-(trifluoromethyl)benzyl)acetamide] | 75% | 50% | ≥ 50% | > 130 mg/kg | 57.6 mg/kg | at least 50% | 152.8 to 153.4 °C | > 300 mg/kg | did not impair motor coordination | 0/4
O=C(NCc1ccc(C(F)(F)F)cc1)C(c1ccccc1)N1C(=O)CCC1=O (stereo not shown) [Compound 23, 2-(2,5-Dioxopyrrolidin-1-yl)-2-phenyl-N-(4-(trifluoromethyl)benzyl)acetamide] | 0% |  |  |  |  |  |  |  |  | 
O=C(NCCc1ccccc1F)C(c1ccccc1)N1C(=O)CCC1=O (stereo not shown) [Compound 26, 2-(2,5-Dioxopyrrolidin-1-yl)-N-(2-fluorophenethyl)-2-phenylacetamide] | 25% |  |  |  |  |  | 142.4 to 142.8 °C |  |  | 
O=C(NCCc1ccc(Cl)cc1)C(c1ccccc1)N1C(=O)CCC1=O (stereo not shown) [Compound 28, N-(4-Chlorophenethyl)-2-(2,5-dioxopyrrolidin-1-yl)-2-phenylacetamide] | 100% | 75% |  | 117 mg/kg | 88.1 mg/kg |  | 137.2 to 137.8 °C | 272 mg/kg |  | 1/4
O=C(NCCCc1ccccc1)C(c1ccccc1)N1C(=O)CCC1=O (stereo not shown) [Compound 31, 2-(2,5-Dioxopyrrolidin-1-yl)-2-phenyl-N-(3-phenylpropyl)acetamide] | 50% | 50% | ≥ 50% |  | 104 mg/kg |  | 133.1 to 133.9 °C | > 300 mg/kg |  | 0/4
